In article PMC9226124, “Macrocycle-stabilization of its interaction with 14-3-3 increases plasma membrane localization and activity of CFTR” (Nature Communications, 2022):
Where “and” joins values, the source holds several entries; their conditions need not be identical. Equal entries are not always repeated. Where two headings read alike, the source gives them in different places. Blank lines part the entries; values can stand above or below the molecule they belong to.

Target: T1, 14-3-3β/CFTRpS753pS768 complex (Homo sapiens, UniProt P13569+P31946)
T1 construct: His6 (cleaved yes); made in house; peptide synthetic
Experiment: Dose-response fluorescence polarization (FP) assay, compound titration
Assay type: binding
Settings: for EC50: 14-3-3β 10 μM, labeled CFTRpS753pS768 100 nM; for FP signal: With 14-3-3; for Polarization, background subtracted: 14-3-3 10 μM, peptide 100 nM, replicates
Description: The 14-3-3β concentration used for the FP screening assay was 10 μM (dashed line). c HTS FP assay of the Cyclenium library. The samples contain 100 nM of FITC-CFTR_pS753pS768 peptide, 10 μM 14-3-3β, and 50 μM compound. FC-A (100 µM) was added as a positive control and DMSO as the negative control. Hit compounds are defined as a polarization increase which is higher than 20% of the response of FC-A. Red squares are compounds that appeared positive in the negative control without 14-3-3. […] Background polarization was subtracted from all values, n = 3 technical replicates. Compounds selected for further analysis are indicated with an asterisk. e Polarization in the absence of 14-3-3. […] Source data are provided as a Source Data file. […]
The FITC-labeled peptides were dissolved in FP buffer (10 mM HEPES pH 7.4, 150 mM NaCl, 0.1% Tween20, 1 mg/mL BSA) to a final concentration of 100 nM or 10 nM. For the dose-response assays, a 14-3-3β concentration of 10 μM was used while titrating the compounds in a two-times dilution series and, for the other assays, a dilution series of 14-3-3β was made with constant concentration of compound. The dilution series were made in 384 Corning Black Round Bottom well plates and their polarization was measured with a Tecan Infinite F500 plate reader (ex. = 485 nm, em. = 535 nm). The method of fitting of the curves was: “log(agonist) vs. response – Variable slope (four parameters)” from GraphPad Prism. The equation is Y = Bottom + (Top-Bottom)/(1 + 10^((LogEC50-X)*HillSlope)).

T1 sequence (P31946 whole entry): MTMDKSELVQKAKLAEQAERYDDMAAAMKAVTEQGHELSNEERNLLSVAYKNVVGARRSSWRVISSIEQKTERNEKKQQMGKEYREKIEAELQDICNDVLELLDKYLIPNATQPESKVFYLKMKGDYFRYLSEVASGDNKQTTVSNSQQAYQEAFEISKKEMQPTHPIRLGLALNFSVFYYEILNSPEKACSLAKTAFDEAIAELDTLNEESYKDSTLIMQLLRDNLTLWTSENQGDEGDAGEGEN
T1 sequence (P13569 747-774 limits assumed): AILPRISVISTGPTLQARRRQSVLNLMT

SMILES: C=CC(C)(C)OC[C@H]1O[C@H](O[C@@H]2C3=C([C@H](C)COC(C)=O)C[C@H](O)[C@]3(C)/C=C3/[C@@H](COC)CC[C@H]3[C@@H](C)[C@H]2O)[C@H](O)[C@@H](OC(C)=O)[C@@H]1O [FC-A, fusicoccin A, reference compound]
- EC50 (read-out: EC50): 69.7 µM
- FP signal (compound 476.8 pM): 1
- FP signal (compound 953.7 pM): 5
- FP signal (compound 1.90735e-9 M): 0
- FP signal (compound 3.8147e-9 M): 3
- FP signal (compound 7.6294e-9 M): 3
- FP signal (compound 1.52588e-8 M): 2
- FP signal (compound 3.05176e-8 M): 2
- FP signal (compound 6.10352e-8 M): 1
- FP signal (compound 1.2207e-7 M): 1
- FP signal (compound 2.44141e-7 M): 2
- FP signal (compound 4.88281e-7 M): 4
- FP signal (compound 9.76563e-7 M): 5
- FP signal (compound 1.95313e-6 M): 6
- FP signal (compound 3.90625e-6 M): 15
- FP signal (compound 7.8125e-6 M): 23
- FP signal (compound 1.5625e-5 M): 37
- FP signal (compound 3.125e-5 M): 53
- FP signal (compound 6.25e-5 M): 70
- FP signal (compound 0.000125 M): 91
- FP signal (compound 0.00025 M): 104
- FP signal (compound 0.0005 M): 116
- FP signal (compound 0.001 M): 133
- Polarization, background subtracted (compound 7.8125e-7 M): 8.267 (2×) and 9.167
- Polarization, background subtracted (compound 1.5625e-6 M): 13.6667 (2×) and 15.2667
- Polarization, background subtracted (compound 3.125e-6 M): 22.4667 and 22.7667 and 24.2667
- Polarization, background subtracted (compound 6.25e-6 M): 35.6667 and 36.6667 (2×)
- Polarization, background subtracted (compound 1.25e-5 M): 51.9667 and 52.3667 and 53.1667
- Polarization, background subtracted (compound 2.5e-5 M): 71.5667 and 71.6667 and 72.5667
- Polarization, background subtracted (compound 5e-5 M): 88.8667 and 90.2667 and 89.8667
- Polarization, background subtracted (compound 0.0001 M): 104.867 and 104.367 and 104.267

- EC50: False positive
- FP signal (compound 476.8 pM): 5
- FP signal (compound 953.7 pM): 5
- FP signal (compound 1.90735e-9 M): 4
- FP signal (compound 3.8147e-9 M): 7
- FP signal (compound 7.6294e-9 M): 5
- FP signal (compound 1.52588e-8 M): 4
- FP signal (compound 3.05176e-8 M): 4
- FP signal (compound 6.10352e-8 M): 7
- FP signal (compound 1.2207e-7 M): 6
- FP signal (compound 2.44141e-7 M): 5
- FP signal (compound 4.88281e-7 M): 6
- FP signal (compound 9.76563e-7 M): 7
- FP signal (compound 1.95313e-6 M): 8
- FP signal (compound 3.90625e-6 M): 14
- FP signal (compound 7.8125e-6 M): 28
- FP signal (compound 1.5625e-5 M): 52
- FP signal (compound 3.125e-5 M): 90
- FP signal (compound 6.25e-5 M): 137
- FP signal (compound 0.000125 M): 191
- FP signal (compound 0.00025 M): 224
- FP signal (compound 0.0005 M): 238
- FP signal (compound 0.001 M): 248
SMILES: NCCCC1NCc2ccccc2Sc2ccccc2CNC(=O)C(Cc2c[nH]c3ccccc23)NC(=O)C(Cc2ccccc2)NC1=O (stereo not shown) [CY007345]

SMILES: N=C(N)NCCCC1NC(=O)C(CCC(N)=O)NC(=O)C(CCCNC(=N)N)NC(=O)C2CCCN2Cc2cccc(c2)-c2ccccc2CNC1=O (stereo not shown) [CY007455]
- EC50 (read-out: EC50): 170 µM
- FP signal (compound 476.8 pM): 5
- FP signal (compound 953.7 pM): 6
- FP signal (compound 1.90735e-9 M): 3
- FP signal (compound 3.8147e-9 M): 4
- FP signal (compound 7.6294e-9 M): 5
- FP signal (compound 1.52588e-8 M): 4
- FP signal (compound 3.05176e-8 M): 4
- FP signal (compound 6.10352e-8 M): 5
- FP signal (compound 1.2207e-7 M): 7
- FP signal (compound 2.44141e-7 M): 6
- FP signal (compound 4.88281e-7 M): 4
- FP signal (compound 9.76563e-7 M): 4
- FP signal (compound 1.95313e-6 M): 5
- FP signal (compound 3.90625e-6 M): 9
- FP signal (compound 7.8125e-6 M): 8
- FP signal (compound 1.5625e-5 M): 15
- FP signal (compound 3.125e-5 M): 26
- FP signal (compound 6.25e-5 M): 53
- FP signal (compound 0.000125 M): 107
- FP signal (compound 0.00025 M): 170
- FP signal (compound 0.0005 M): 209
- FP signal (compound 0.001 M): 244

- EC50 (read-out: EC50): 267 µM
- FP signal (compound 476.8 pM): 3
- FP signal (compound 953.7 pM): 3
- FP signal (compound 1.90735e-9 M): 4
- FP signal (compound 3.8147e-9 M): 4
- FP signal (compound 7.6294e-9 M): 3
- FP signal (compound 1.52588e-8 M): 5
- FP signal (compound 3.05176e-8 M): 4
- FP signal (compound 6.10352e-8 M): 5
- FP signal (compound 1.2207e-7 M): 4
- FP signal (compound 2.44141e-7 M): 4
- FP signal (compound 4.88281e-7 M): 5
- FP signal (compound 9.76563e-7 M): 6
- FP signal (compound 1.95313e-6 M): 6
- FP signal (compound 3.90625e-6 M): 6
- FP signal (compound 7.8125e-6 M): 7
- FP signal (compound 1.5625e-5 M): 9
- FP signal (compound 3.125e-5 M): 16
- FP signal (compound 6.25e-5 M): 33
- FP signal (compound 0.000125 M): 73
- FP signal (compound 0.00025 M): 143
- FP signal (compound 0.0005 M): 201
- FP signal (compound 0.001 M): 252
SMILES: N=C(N)NCCCC1NC(=O)C(CCCCN)NCc2ccccc2Sc2ccccc2CNC(=O)C(Cc2ccc(O)cc2)NC1=O (stereo not shown) [CY001951]

- EC50 (read-out: EC50): 637 µM
- FP signal (compound 324.2 pM): 2
- FP signal (compound 648.5 pM): 1
- FP signal (compound 1.297e-9 M): 2
- FP signal (compound 2.59399e-9 M): 3
- FP signal (compound 5.18799e-9 M): 3
- FP signal (compound 1.0376e-8 M): 3
- FP signal (compound 2.0752e-8 M): 3
- FP signal (compound 4.15039e-8 M): 3
- FP signal (compound 8.30078e-8 M): 2
- FP signal (compound 1.66016e-7 M): 5
- FP signal (compound 3.32031e-7 M): 4
- FP signal (compound 6.64062e-7 M): 3
- FP signal (compound 1.32813e-6 M): 4
- FP signal (compound 2.65625e-6 M): 5
- FP signal (compound 5.3125e-6 M): 6
- FP signal (compound 1.0625e-5 M): 4
- FP signal (compound 2.125e-5 M): 10
- FP signal (compound 4.25e-5 M): 18
- FP signal (compound 8.5e-5 M): 37
- FP signal (compound 0.00034 M): 117
- FP signal (compound 0.00068 M): 184
- FP signal (compound […]): 71
SMILES: N=C(N)NCCCC1NC(=O)C(CCC(N)=O)NC(=O)C(CCCNC(=N)N)NC(=O)C2Cc3ccccc3CN2Cc2cccc(c2)-c2ccccc2CNC1=O (stereo not shown) [CY007493]

SMILES: N=C(N)NCCCC1NC(=O)C(CCC(N)=O)NC(=O)C(CCCNC(=N)N)NC(=O)C2CCCN2Cc2cccc(c2)-c2ccccc2CNC1=O (stereo not shown) [CY007458]
- EC50 (read-out: EC50): 151 µM
- FP signal (compound 476.8 pM): 6
- FP signal (compound 953.7 pM): 5
- FP signal (compound 1.90735e-9 M): 4
- FP signal (compound 3.8147e-9 M): 5
- FP signal (compound 7.6294e-9 M): 7
- FP signal (compound 1.52588e-8 M): 4
- FP signal (compound 3.05176e-8 M): 6
- FP signal (compound 6.10352e-8 M): 5
- FP signal (compound 1.2207e-7 M): 4
- FP signal (compound 2.44141e-7 M): 5
- FP signal (compound 4.88281e-7 M): 6
- FP signal (compound 9.76563e-7 M): 6
- FP signal (compound 1.95313e-6 M): 5
- FP signal (compound 3.90625e-6 M): 8
- FP signal (compound 7.8125e-6 M): 11
- FP signal (compound 1.5625e-5 M): 15
- FP signal (compound 3.125e-5 M): 33
- FP signal (compound 6.25e-5 M): 65
- FP signal (compound 0.000125 M): 124
- FP signal (compound 0.00025 M): 179
- FP signal (compound 0.0005 M): 221
- FP signal (compound 0.001 M): 252

- EC50 (read-out: EC50): 275 µM
- FP signal (compound 453 pM): 1
- FP signal (compound 906 pM): 2
- FP signal (compound 1.81198e-9 M): 2
- FP signal (compound 3.62396e-9 M): 3
- FP signal (compound 7.24792e-9 M): 3
- FP signal (compound 1.44958e-8 M): 1
- FP signal (compound 2.89917e-8 M): 3
- FP signal (compound 5.79834e-8 M): 4
- FP signal (compound 1.15967e-7 M): 3
- FP signal (compound 2.31934e-7 M): 4
- FP signal (compound 4.63867e-7 M): 6
- FP signal (compound 9.27734e-7 M): 3
- FP signal (compound 1.85547e-6 M): 3
- FP signal (compound 3.71094e-6 M): 4
- FP signal (compound 7.42187e-6 M): 6
- FP signal (compound 1.48437e-5 M): 6
- FP signal (compound 2.96875e-5 M): 6
- FP signal (compound 5.9375e-5 M): 26
- FP signal (compound 0.00011875 M): 67
- FP signal (compound 0.0002375 M): 127
- FP signal (compound 0.000475 M): 188
- FP signal (compound 0.00095 M): 241
SMILES: N=C(N)NCCCC1NC(=O)C(CCC(N)=O)NC(=O)C(CCCNC(=N)N)NC(=O)C2CCCN2Cc2ccccc2Sc2ccccc2CNC1=O (stereo not shown) [CY007502]
